Data reported in patent US9035059B2, “Nitrogen-containing condensed heterocyclic compound” (TAISHO PHARMACEUTICAL CO., LTD., priority 2011, dated 2015).

These molecules were tested against human MGAT2 (Homo sapiens (Human), UniProt Q3SYC2) (assay: Test Example 1: Test of MGAT2 inhibitory action (human MGAT2 enzyme fraction from Sf9 cells, free CoA detected by CPM fluorescence)). Details: human MGAT2 enzyme fraction expressed in Sf9 insect cells, 0.5 μg/ml, 2-monooleoyl glycerol 0.78 μM, oleoyl-CoA 5.3 μM, room temperature 20 min, listed as 10-3, read-out: Activity Value [nM] (IC50, concentration at which 50% of produced free CoA was inhibited).
Chain of human MGAT2 (Q3SYC2 whole entry): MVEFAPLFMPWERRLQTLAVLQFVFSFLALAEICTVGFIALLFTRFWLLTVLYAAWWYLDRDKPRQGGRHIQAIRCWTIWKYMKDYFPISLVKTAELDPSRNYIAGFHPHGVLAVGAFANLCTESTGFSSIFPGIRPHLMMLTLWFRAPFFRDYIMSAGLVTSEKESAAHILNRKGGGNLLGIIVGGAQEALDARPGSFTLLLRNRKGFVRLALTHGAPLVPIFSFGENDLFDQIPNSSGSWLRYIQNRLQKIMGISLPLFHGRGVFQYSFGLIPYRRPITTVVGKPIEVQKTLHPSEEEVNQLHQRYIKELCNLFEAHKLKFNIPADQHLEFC
Type: biochemical
Protocol: The MGAT2 inhibitory action of the inventive compound was measured by the methods described in Test Examples as shown below. The MGAT enzyme activity was measured based on the amount of an indicator, free Coenzyme A (CoA) which is generated by the reaction shown below, using a sulfhydryl reactive pigment (7-diethylamino-3-(4-maleimidophenyl)-4-methylcoumarin; hereinafter, sometimes abbreviated as CPM).
A test for MGAT2 inhibitory action of test compounds was conducted in accordance with a partially modified version of the method described in John F. Lockwood et al., Am. J. Physiol. Endocrinol. Metab., 2003, 285, E927.
Bac-to-Bac Baculovirus Expression System (Life Technologies Japan) was used to express human MGAT2 in insect cells (Sf9) (Life Technologies Japan). These cells were sonicated and centrifuged at 100,000 g×1 hr to give a precipitate. The precipitate was used as a human MGAT2 enzyme fraction in this assay.
This test was conducted using a black flat-bottom 96-well plate (Corning). A buffer solution with final concentrations of 5 mM magnesium chloride, 100 mM sucrose and 100 mM Tris-HCl (pH=7.5) was prepared and test compounds prepared in various concentrations using dimethyl sulfoxide were added thereto to give a final dimethyl sulfoxide concentration of 1%. The MGAT2 enzyme fraction was added thereto to give a final concentration of 0.5 μg/ml and phosphatidylcholine, 2-monooleoyl glycerol and oleoyl-CoA were added thereto to give final concentrations of 7.5 μM, 0.78 μM and 5.3 μM, respectively, before starting a reaction. The reaction was performed at room temperature for 20 min.
After 20 min, a CPM-containing solution was added thereto to give a final concentration of 5 μM before stopping the MGAT reaction. After 1 hr, a fluorescence detector (Infinite 200 from Tecan Japan) was used to measure the CPM fluorescence value of each well (excitation 380 nm, emission 460 nm).
In the case of `CCCCCCOc1ccc(NS(=O)(=O)c2ccc3c(c2)CCN(C(C)Cc2ccc(C(C)(C)C)cc2)C3)c(F)c1` (single isomer, unassigned) [Working Example 10-3], the IC50 was 26 nM.

Same assay, conditions: human MGAT2 enzyme fraction expressed in Sf9 insect cells, 0.5 μg/ml, 2-monooleoyl glycerol 0.78 μM, oleoyl-CoA 5.3 μM, room temperature 20 min, listed as 10-5, read-out: Activity Value [nM] (IC50, concentration at which 50% of produced free CoA was inhibited)
In the case of `CC(Cc1ccc(C(C)(C)C)cc1)N1CCc2cc(S(=O)(=O)Nc3ccc(CCCC4CCCC4)cc3F)ccc2C1` (single isomer, unassigned) [Working Example 10-5], the IC50 was 25 nM.

Same assay, conditions: human MGAT2 enzyme fraction expressed in Sf9 insect cells, 0.5 μg/ml, 2-monooleoyl glycerol 0.78 μM, oleoyl-CoA 5.3 μM, room temperature 20 min, listed as 10-7, read-out: Activity Value [nM] (IC50, concentration at which 50% of produced free CoA was inhibited)
In the case of `CCCCCCCc1ccc(NS(=O)(=O)c2ccc3c(c2)CCN(C(C)Cc2ccc(C(C)(C)C)cc2)C3)c(F)c1` (single isomer, unassigned) [Working Example 10-7], the IC50 was 31 nM.

Same assay, conditions: human MGAT2 enzyme fraction expressed in Sf9 insect cells, 0.5 μg/ml, 2-monooleoyl glycerol 0.78 μM, oleoyl-CoA 5.3 μM, room temperature 20 min, listed as 10-9, read-out: Activity Value [nM] (IC50, concentration at which 50% of produced free CoA was inhibited)
Work on `CCCCCCCCOc1ccc(NS(=O)(=O)c2ccc3c(c2)CCN(C(C)Cc2ccc(C(C)(C)C)cc2)C3)c(F)c1` (stereo not shown) [Working Example 10-9] yielded an IC50 of 96 nM.

Same assay, conditions: human MGAT2 enzyme fraction expressed in Sf9 insect cells, 0.5 μg/ml, 2-monooleoyl glycerol 0.78 μM, oleoyl-CoA 5.3 μM, room temperature 20 min, listed as 10-13, read-out: Activity Value [nM] (IC50, concentration at which 50% of produced free CoA was inhibited)
For `CC(Cc1ccc(C(C)(C)C)cc1)N1CCc2cc(S(=O)(=O)Nc3ccc(OCCCC4CCCCC4)cc3F)ccc2C1` (single isomer, unassigned) [Working Example 10-13], the IC50 was 66 nM.

Same assay, conditions: human MGAT2 enzyme fraction expressed in Sf9 insect cells, 0.5 μg/ml, 2-monooleoyl glycerol 0.78 μM, oleoyl-CoA 5.3 μM, room temperature 20 min, listed as 10-14, read-out: Activity Value [nM] (IC50, concentration at which 50% of produced free CoA was inhibited)
With `CC(Cc1ccc(C(C)(C)C)cc1)N1CCc2cc(S(=O)(=O)Nc3ccc(OCCCC4CCCCC4)cc3F)ccc2C1` (single isomer, unassigned) [Working Example 10-14] the IC50 was 106 nM.

Same assay, conditions: human MGAT2 enzyme fraction expressed in Sf9 insect cells, 0.5 μg/ml, 2-monooleoyl glycerol 0.78 μM, oleoyl-CoA 5.3 μM, room temperature 20 min, read-out: Activity Value [nM] (IC50, concentration at which 50% of produced free CoA was inhibited)
In the case of `CC(C)(C)c1ccc(CCN2CCc3cc(S(=O)(=O)Nc4ccc(CCCC5CCOCC5)cc4F)ccc3C2)cc1` [Working Example 6-75], the IC50 was 24 nM. Molecule `CC(C)(C)c1ccc(NC(=O)N2Cc3ccc(S(=O)(=O)Nc4ccc(OCCc5ccccc5)cc4F)cc3C2)cc1` [18-14] has an IC50 of 127 nM. Molecule `CC(C)(C)c1ccc(CCN2CCc3cc(S(=O)(=O)Nc4ccc(CCCC5CCCCC5)cc4F)ccc3C2)cc1` [Working Example 6-19] has an IC50 of 62 nM. `CCCCCCOc1ccc(NS(=O)(=O)c2ccc3c(c2)CN(C(=O)Nc2ccc(C(C)(C)C)cc2)C3)c(F)c1` [18-6] showed an IC50 of 43 nM. Molecule `COc1cc(F)cc(F)c1NS(=O)(=O)c1ccc2c(c1)CN(C(=O)Nc1ccc(C(C)(C)C)cc1)C2` [14-21] has an IC50 of 193 nM. Molecule `CC(c1ccc(C(C)(C)C)nc1)N1CCc2cc(S(=O)(=O)Nc3ccc(CCCC4CCCC4)cc3F)ccc2C1` (stereo not shown) [23-1, 2-[1-(6-tert-Butylpyridin-3-yl)ethyl]-N-[4-(3-cyclopentylpropyl)-2-fluorophenyl]-1,2,3,4-tetrahydroisoquinoline-6-sulfonamide] has an IC50 of 13 nM. `CC(C)Oc1ccc(CN2CCc3cc(S(=O)(=O)Nc4ccc(CCCC5CCCC5)cc4F)ccc3C2)cc1` [Working Example 7-45] showed an IC50 of 199 nM. Work on `CC(c1ccc(C(C)(C)C)nc1)N1CCc2cc(S(=O)(=O)Nc3ccc(OCCCc4ccccc4)cc3F)ccc2C1` (stereo not shown) [Working Example 11-2] yielded an IC50 of 121 nM. `CC(C)(C)c1ncc(CN2CCc3cc(S(=O)(=O)Nc4ccc(CCCC5CCCC5)cc4F)ccc3C2)cn1` [Working Example 7-56] gave an IC50 of 52 nM. `O=C(c1ccc(C(F)(F)F)nc1)N1CCc2cc(S(=O)(=O)Nc3ccc(CCCC4CCCC4)cc3F)ccc2C1` [Working Example 1-5] showed an IC50 of 154 nM. For `CCCCCCOc1ccc(NS(=O)(=O)c2ccc3c(c2)CCN(C(=O)Nc2ccc(CCCC)cc2)C3)c(F)c1` [14-3], the IC50 was 76 nM. Molecule `CCCCCCCCN1CCc2cc(S(=O)(=O)Nc3ccc(OCCCCCC)cc3F)ccc2C1` [Working Example 6-36] has an IC50 of 253 nM. `CC(C)(C)c1ccc(NC(=O)N2Cc3ccc(S(=O)(=O)Nc4ccc(OCCCC(F)(F)F)cc4F)cc3C2)cc1` [18-26] gave an IC50 of 185 nM. Molecule `CC(C)(C)c1ccc(CC(=O)N2CCc3cc(S(=O)(=O)Nc4ccc(OCCC5CCCCC5)cc4F)ccc3C2)cc1` [Working Example 4-1, 2-[(4-tert-Butylphenyl)acetyl]-N-[4-(2-cyclohexylethoxy)-2-fluorophenyl]-1,2,3,4-tetrahydroisoquinoline-6-sulfonamide] has an IC50 of 149 nM. `CCCCCCOc1ccc(NS(=O)(=O)c2ccc3c(c2)CCN(CCc2ccc(C(C)(C)C)cc2)C3)c(F)c1` [Working Example 8-3] was tested, and the IC50 was 133 nM. With `CC(C)(C)c1ccc(CCN2CCc3cc(S(=O)(=O)Nc4ccc(OCCCCc5ccccc5)cc4F)ccc3C2)cc1` [Working Example 8-1, 2-[2-(4-tert-Butylphenyl)ethyl]-N-[2-fluoro-4-(4-phenylbutoxy)phenyl]-1,2,3,4-tetrahydroisoquinoline-6-sulfonamide] the IC50 was 70 nM. `CCCCCCCc1ccc(NS(=O)(=O)c2ccc3c(c2)CCN(Cc2ccc(C(F)(F)F)nc2)C3)c(F)c1` [Working Example 7-29] showed an IC50 of 134 nM. For `CCCCCCCOc1ccc(NS(=O)(=O)c2ccc3c(c2)CN(C(=O)Nc2ccc(C(C)(C)C)cc2)C3)c(F)c1` [19-8], the IC50 was 28 nM. `CCCCCCOc1ccc(NS(=O)(=O)c2ccc3c(c2)CCN(Cc2ccc(C(C)(C)C)nc2)C3)c(F)c1` [Working Example 6-27] was tested, and the IC50 was 135 nM. In the case of `CCCCCCOc1ccc(NS(=O)(=O)c2ccc3c(c2)CCN(Cc2cnc(C(C)(C)C)s2)C3)c(F)c1` [Working Example 7-19], the IC50 was 195 nM. `CC(C)(C)c1ccc(CN2CCc3cc(S(=O)(=O)Nc4ccc(OCCC5CCOCC5)cc4F)ccc3C2)cc1` [Working Example 6-66] showed an IC50 of 203 nM. `COc1cc(F)ccc1NS(=O)(=O)c1ccc2c(c1)CN(C(=O)Nc1ccc(C(C)(C)C)cc1)C2` [14-9] was tested, and the IC50 was 168 nM. Molecule `CCCCCCOc1ccc(NS(=O)(=O)c2ccc3c(c2)CCN(CCc2cnc(C(C)(C)C)cn2)C3)c(F)c1` [Working Example 9-20] has an IC50 of 212 nM. With `Cc1nc(-c2ccc(C(F)(F)F)cc2)sc1CN1CCc2cc(S(=O)(=O)Nc3ccc(CCCC4CCCC4)cc3F)ccc2C1` [Working Example 6-65] the IC50 was 51 nM. Work on `CC(C)(C)c1ccc(NC(=O)N2Cc3ccc(S(=O)(=O)Nc4ccc(OCCC5CCCCC5)cc4F)cc3C2)cc1` [18-11] yielded an IC50 of 29 nM. In the case of `CC(C)(C)c1ccc(NC(=O)N2Cc3ccc(S(=O)(=O)Nc4ccc(OCCOC5CCCC5)cc4F)cc3C2)cc1` [18-29], the IC50 was 128 nM. Work on `CC(C)(C)c1ccc(CCN2CCc3cc(S(=O)(=O)Nc4ccc(OCCCc5ccccc5)cc4F)ccc3C2)cn1` [Working Example 6-45] yielded an IC50 of 286 nM. Molecule `CCCCCCOc1ccc(NS(=O)(=O)c2ccc3c(c2)CCN(CCc2ccc(C(C)(C)C)nc2)C3)c(F)c1` [Working Example 6-44] has an IC50 of 258 nM. Work on `O=C(OC1CCCCC1)N1CCc2cc(S(=O)(=O)Nc3ccc(CCCC4CCCC4)cc3F)ccc2C1` [26-1, Cyclohexyl 6-{[4-(3-cyclopentylpropyl)-2-fluorophenyl]sulfamoyl}-3,4-dihydroisoquinoline-2(1H)-carboxylate] yielded an IC50 of 217 nM. In the case of `CC(C)(C)c1ccc(CCN2CCc3cc(S(=O)(=O)Nc4ccc(OCCCCCc5ccccc5)cc4F)ccc3C2)cc1` [17-5], the IC50 was 24 nM. `CCCCCCCCOc1ccc(NS(=O)(=O)c2ccc3c(c2)CCN(Cc2ccc(C(C)(C)C)nc2)C3)c(F)c1` [Working Example 6-33] was tested, and the IC50 was 26 nM. Work on `CC(C)(C)c1ccc(CN2CCc3cc(S(=O)(=O)Nc4ccc(OCCCCCc5ccccc5)cc4F)ccc3C2)cn1` [Working Example 6-34] yielded an IC50 of 36 nM. `CC(C)(C)[C@H]1CC[C@H](C(=O)N2CCc3cc(S(=O)(=O)Nc4ccc(CCCC5CCCC5)cc4F)ccc3C2)CC1` [Working Example 1-6] showed an IC50 of 88 nM. Work on `O=S(=O)(Nc1ccc(CCCC2CCCC2)cc1F)c1ccc2c(c1)CCN(Cc1ccc(C(F)(F)F)nc1)C2` [Working Example 6-54] yielded an IC50 of 180 nM. For `CC(C)(C)[C@H]1CC[C@@H](C(=O)N2CCc3cc(S(=O)(=O)Nc4ccc(CCCC5CCCC5)cc4F)ccc3C2)CC1` [Working Example 1-7], the IC50 was 292 nM. `CC(C)(C)c1ccc(CCN2CCc3cc(S(=O)(=O)Nc4ccc(CCCCCc5ccccc5)cc4F)ccc3C2)cc1` [Working Example 6-28] gave an IC50 of 53 nM. `CC(C)(C)c1ccc(CCN2CCc3cc(S(=O)(=O)Nc4ccc(OCCC5CCOCC5)cc4F)ccc3C2)cc1` [17-7] gave an IC50 of 79 nM.
